In US20050143357A1 (priority 2002, published 2005):

Assays:
[1] = test system: upstream regulatory portion of the VDUP-1; test: VDUP-1 regulatory region luciferase reporter assay in transiently transfected LNCaP cells; format: cell-based, human; settings: VDUP-1 regulatory portion fused to luceferase gene, different time points, luminometer
Procedure: A human cell line, LNCaP was transiently transfected with a DNA vector composed of the upstream regulatory portion of the VDUP-1 fused to the gene encoding luceferase. The procedures to carry out transfection were essentially as described in example 2. At different time points a steroid with androgen properties, exemplified as R1881, were added to cell cultures, as was calcitriol (vitamin D). At different time points, luciferace activity in cell extracts was measured using a luminometer. The outcome of this experiment was that the level of luceferase was decreased by the steroid and was increased by vitamin D.

[2] = test system: 5 α-reduotase; settings: once it enters prostate cells, by 5 α-reduotase; cited from earlier work

SMILES	level of luceferase (luciferace activity in cell extracts) [1]	fraction converted to dihydrotestosterone (DHT) [2]
C[C@]1(O)CC[C@H]2[C@@H]3CCC4=CC(=O)CCC4=C3C=C[C@@]21C [R1881]	decreased	–
C[C@]12CC[C@H]3[C@@H](CCC4=CC(=O)CC[C@@]43C)[C@@H]1CC[C@@H]2O [Testosterone]	–	about 90%
C=C1/C(=C\C=C2/CCC[C@]3(C)[C@@H]([C@H](C)CCCC(C)(C)O)CC[C@@H]23)C[C@@H](O)C[C@@H]1O [calcitriol]	increased	–
